{
  "source": "paper PMC11868579",
  "about": "(Nature Communications, 2024)",
  "key": {"eIF4E": {"target": "T1, eIF4E (Homo sapiens, UniProt P06730)", "T1 construct": "endogenous in cells; host or cells: H1299", "test": "CETSA in intact H1299 cells", "format": "cell-based", "conditions": "6 hrs; for eIF4E stabilisation, eIF4E normalised to vinculin relative to average control (plotted on graph), Average: H1299, 57 °C, control = 1.000", "protocol": "(§1) Cells (1.5 × 10^6 cells) were plated into 75 cm^2 flasks and allowed to attached overnight. After treatment with compound 4 or 5 for 6 h, they were harvested by trypsinisation and washed x2 in ice cold PBS. Cells were resuspended in 1 ml of cold PBS supplemented with protease and phosphatase inhibitors (Fisher Scientific, cat#1861281). Resuspended cells were divided into 100 μl aliquots and centrifuged at 300 x g for 3 min at 4 °C. Following centrifugation, 75μl of supernatant was removed and cells resuspended in the remaining volume. Cell suspensions were heated at 40.9, 43.7, 48.1, 52.9, 57.6, 62.4, 67.2, 71.9, 76.3 and 79.1 °C for 3 mins followed by cooling at 20 °C for 3 min[25]. Suspensions were freeze-thawed twice using liquid nitrogen. Soluble fractions were separated from cell debris by centrifuging at 20,000 x g for 30 min at 4 °C. Samples were then analysed by Western Blot."}, "SW620 cells": {"system": "SW620 cells", "test": "CellTiter-Blue cell viability, SW620", "format": "cell-based, human", "conditions": "SW620, 4 days", "protocol": "Cell viability was measured by CellTiter-Blue® Cell Viability Assay. Cells were seeded in 96 well plates (Corning, cat#353072) and left overnight. Compounds were added at a range of concentrations and plates incubated at 37 °C for 96 hr. Cell titre blue reagent (Promega, Hampshire, UK, cat# G8081) was added (5 μl/well) and incubated for a further 2 h at 37 °C. Fluorescence (579Ex/584Em) was measured using a PHERAstar plate reader.\nSupplementary Fig. 10 Determination of the effects of compound 4 on protein synthesis and viability. a HEK293 cells were transfected with protein synthesis reporter expressing bicistonic mRNA with a cap-dependent luciferase reporter and a cap-independent luciferase driven by a viral IRES. Cells were treated with 1 or 10 µM with compound 4 for 24 hr. Luminescence was measured using the Dual-glo luciferase assay (mean ± SEM from 3 biological replicates). b SW620 cells were transfected with a c-Myc-regulated firefly luciferase expression reporter or a constitutive CMV promoter-regulated renilla luciferase reporter. Cells were treated for 24 hr with 1 or 10 µM compound 4 or the […] kinase inhibitor AZD8055 as positive control (mean ± SEM from 3 biological replicates). […]\nvs 1 µM AZD8055). c Cell viability measured by cell titre blue assay was performed in SW620 cells treated with compound 4 for 4 days (mean ± SEM from 3 biological replicates). […]"}, "Caco-2 monolayer": {"system": "Caco-2 monolayer", "test": "Caco-2 permeability assay", "format": "in vitro ADME", "protocol": "Caco-2 permeability Assay\nThe permeability of Compound 4 was assessed using the CacoReady system.\nCompound 4 and control compounds (propranolol, antipyrine, and vinblastine) were incubated at a final concentration of 10 µM in duplicate to either the apical (180 µL) of the monolayer to measure apical to basolateral transport (A > B) across the cell barrier or to the basolateral side (750 µL) to measure the basolateral to apical transport (B > A). For A > B spiking, test and control compounds were diluted from 10 mM DMSO stocks to 10 µM in HBSS buffer with 100 mM CaCl2·2H2O, 50 mM MgCl2·5H2O, and 0.5 mg/mL lucifer yellow made to volume with sterile water (lucifer yellow was used to determine the integrity of the Caco-2 monolayer). For B > A compound spiking, test and control compounds were prepared as for the A > B solutions without the addition of lucifer yellow. Test and control compounds were incubated for 1 h at +37 °C in a highly humidified atmosphere of 95% air and 5% CO2. […]"}, "[1]": {"test": "Human microsomal clearance assay", "format": "in vitro ADME"}, "eIF4E W73F": {"target": "T2, eIF4E W73F (Homo sapiens, UniProt P06730, W73F)", "T2 construct": "expressed in transfected cells; host or cells: H1299 eIF4E-dTAG clone C3-1, eIF4E-dTAG depleted with dTAG^V-1 before compound", "T2 sequence (P06730 whole entry W73F)": "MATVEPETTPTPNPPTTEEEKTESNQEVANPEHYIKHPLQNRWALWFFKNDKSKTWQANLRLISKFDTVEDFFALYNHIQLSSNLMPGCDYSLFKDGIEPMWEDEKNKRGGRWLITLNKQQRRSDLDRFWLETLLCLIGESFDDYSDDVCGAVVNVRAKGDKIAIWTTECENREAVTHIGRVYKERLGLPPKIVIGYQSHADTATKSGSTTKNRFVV", "test": "CETSA in eIF4E-dTAG model expressing W73F eIF4E", "format": "cell-based", "conditions": "intact cells", "protocol": "as §1\nSupplementary Fig. 18. Comparison of compound 4 binding to wild-type or […]\nCells were treated with dTAGV-1 (1 μM) for 16 hr. Compound 4 (10 μM) or compound 5 (10 μM) was then added for 6 hrs.\nVi nculin was used for loading control. Blots are from one biological repeat. b […]\nwas used as loading control . c Cells were treated with dTAGV -1 (1 μM) for 16 hr.\nCompound 4 (50 μM) or compound 5 (50 μM) was then added for 6 hrs. […]\nfollowing incubation at 48.1 °C. Vinculin was used for loaing control. All blots are […]"}, "eIF4E–4E-BP1 interaction": {"target": "eIF4E–4E-BP1 interaction (Homo sapiens, UniProt P06730)", "sequence (P06730 2-217 limits assumed)": "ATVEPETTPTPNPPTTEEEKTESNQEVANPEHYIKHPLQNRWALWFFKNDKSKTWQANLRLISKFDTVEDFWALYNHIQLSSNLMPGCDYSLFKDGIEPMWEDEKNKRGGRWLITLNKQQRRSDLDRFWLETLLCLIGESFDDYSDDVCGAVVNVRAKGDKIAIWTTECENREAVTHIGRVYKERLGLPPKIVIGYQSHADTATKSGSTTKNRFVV", "test": "Electro-chemiluminescent binding assay, eIF4E:4E-BP1, SW620 cell lysates", "format": "biochemical", "set-up": "endogenous in cells; host or cells: SW620 cell lysates", "conditions": "for 4E-BP1:eIF4E luminescence signal normalised to DMSO control: SW620, Expt 1, Expt 2, Fig. 4d", "protocol": "This assay uses plates with carbon electrodes and electro-chemiluminescent labels (SULFO-TAGs) that are conjugated to detection antibodies. When an electric current is applied to the plate electrodes the SULFO-TAG labels will emit light that is measured to quantify analytes in the sample. […] The plates were washed with 3 ×150 µl/well MSD wash buffer (cat#R61AA-1; 0.2% Tween-20 in PBS), then blocked with 150 µl/well block buffer (MSD, cat# R93AA) for 1 h. […] The incubated plates were washed 4x in 150 µl in MSD wash buffer and were re-blocked by the addition of 25 μl of blocking buffer containing a 1:500 dilution of the secondary antibody and incubated for 1 hr at RT with rotational shaking. […] Plates were then washed again 4x in 150 µl in MSD wash buffer and 25 μl of a 1:50 dilution of Goat anti-rabbit Sulfo-Tag (MSD, Cat# R32AB-1) in MSD blocking buffer was added and the plates incubated for 1 h at RT with rotational shaking. After a final wash step, 150 μl Read Buffer T4X (MSD, Cat# R92-TC2) was added and the plate read using the MSD QuickPlex SQ 120 plate reader."}},
  "note": "Several values for one entry are separate records, joined by “and”; a condition that tells them apart may be missing. Equal entries are not always repeated.",
  "data": [
    {"molecule": "CC[C@H](O[C@H](C)CO)c1ccc(-c2ccccc2F)cc1NCCO", "note": "[Compound 4]", "values": [
      {"measurement": "eIF4E stabilisation, eIF4E normalised to vinculin relative to average control (plotted on graph), Average", "setting": "eIF4E; 0.5 μM", "value": 1.140},
      {"measurement": "eIF4E stabilisation, eIF4E normalised to vinculin relative to average control (plotted on graph), Average", "setting": "eIF4E; 1 μM", "value": 1.298},
      {"measurement": "eIF4E stabilisation, eIF4E normalised to vinculin relative to average control (plotted on graph), Average", "setting": "eIF4E; 5 μM", "value": 1.771},
      {"measurement": "eIF4E stabilisation, eIF4E normalised to vinculin relative to average control (plotted on graph), Average", "setting": "eIF4E; 10 μM", "value": 2.067},
      {"measurement": "protection of eIF4E from thermal denaturation", "setting": "eIF4E; H1299 cells, 50 µM", "value": "protected eIF4E from thermal denaturation"},
      {"measurement": "EC50", "setting": "eIF4E; read-out: EC50, thermal protection of eIF4E (target engagement), intact H1299 cells, 57.6 °C", "value": 2000, "unit": "nM"},
      {"measurement": "antiproliferative activity", "setting": "SW620 cells", "value": "lacked on-target antiproliferative activity"},
      {"measurement": "permeability in Caco2 assay", "setting": "Caco-2 monolayer", "value": "good permeability"},
      {"measurement": "Caco-2 permeability Papp (A-B)", "setting": "Caco-2 monolayer; 10 µM, 1 h", "value": 9, "unit": "×10⁻⁶ cm/s"},
      {"measurement": "efflux ratio", "setting": "Caco-2 monolayer; Caco2", "value": 1.5},
      {"measurement": "Human microsomal intrinsic clearance", "setting": "[1]; 1 µM, 0.25 mg/mL microsomes", "value": 210, "unit": "µL/min/mg protein"},
      {"measurement": "clearance in human liver microsomes", "setting": "[1]; human", "value": "moderate clearance"},
      {"measurement": "thermal stabilisation of W73F eIF4E", "setting": "eIF4E W73F", "value": "destabilised, rather than stabilised"},
      {"measurement": "4E-BP1:eIF4E luminescence signal normalised to DMSO control", "setting": "eIF4E–4E-BP1 interaction; 0.4 μM", "value": "98.1% and 93.2%"},
      {"measurement": "4E-BP1:eIF4E luminescence signal normalised to DMSO control", "setting": "eIF4E–4E-BP1 interaction; 4 μM", "value": "74.9% and 84.1%"},
      {"measurement": "4E-BP1:eIF4E luminescence signal normalised to DMSO control", "setting": "eIF4E–4E-BP1 interaction; 12 μM", "value": "74.8% and 76%"},
      {"measurement": "4E-BP1:eIF4E luminescence signal normalised to DMSO control", "setting": "eIF4E–4E-BP1 interaction; 40 μM", "value": "76.2% and 83.6%"},
      {"measurement": "effect on 4E-BP1 binding to eIF4E", "setting": "eIF4E–4E-BP1 interaction; SW620 cell lysates", "value": "not 4E-BP1 binding to eIF4E"},
      {"measurement": "4E-BP1:eIF4E SW620, luminescence ratio normalised to DMSO control", "setting": "eIF4E–4E-BP1 interaction; SW620 lysates, 100 µM, 30 min, single experiments Expt 1, Expt 2", "value": "103% and 91%"}
    ]}
  ]
}
